Data taken from US9834542B2, “LXR modulators” (BRISTOL-MYERS SQUIBB COMPANY, priority 2013, dated 2017).
pEC50: −log10 of the molar value.

Molecular target: T1, LXRβ (Homo sapiens, UniProt P55055)
T1 construct: Co-transfection expression plasmids, comprising full-length LXRα (pCMX-h LXRα[…] or LXRβ (pCMX-hLXRβ)); expressed in transfected cells; host or cells: CV-1 African Green Monkey Kidney Cells
T1 sequence (P55055 1-460): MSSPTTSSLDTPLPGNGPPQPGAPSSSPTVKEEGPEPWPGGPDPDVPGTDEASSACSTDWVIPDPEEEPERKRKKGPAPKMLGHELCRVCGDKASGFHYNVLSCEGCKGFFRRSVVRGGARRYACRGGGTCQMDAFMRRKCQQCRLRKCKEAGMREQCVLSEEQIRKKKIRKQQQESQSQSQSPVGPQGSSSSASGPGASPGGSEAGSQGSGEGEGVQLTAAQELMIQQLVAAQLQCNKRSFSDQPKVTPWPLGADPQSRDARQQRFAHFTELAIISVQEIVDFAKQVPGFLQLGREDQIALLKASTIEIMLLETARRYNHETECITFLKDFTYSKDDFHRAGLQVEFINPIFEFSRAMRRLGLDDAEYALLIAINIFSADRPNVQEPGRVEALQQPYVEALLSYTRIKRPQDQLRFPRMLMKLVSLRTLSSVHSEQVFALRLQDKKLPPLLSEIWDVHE
T1 sequence (P19793 1-462 partner): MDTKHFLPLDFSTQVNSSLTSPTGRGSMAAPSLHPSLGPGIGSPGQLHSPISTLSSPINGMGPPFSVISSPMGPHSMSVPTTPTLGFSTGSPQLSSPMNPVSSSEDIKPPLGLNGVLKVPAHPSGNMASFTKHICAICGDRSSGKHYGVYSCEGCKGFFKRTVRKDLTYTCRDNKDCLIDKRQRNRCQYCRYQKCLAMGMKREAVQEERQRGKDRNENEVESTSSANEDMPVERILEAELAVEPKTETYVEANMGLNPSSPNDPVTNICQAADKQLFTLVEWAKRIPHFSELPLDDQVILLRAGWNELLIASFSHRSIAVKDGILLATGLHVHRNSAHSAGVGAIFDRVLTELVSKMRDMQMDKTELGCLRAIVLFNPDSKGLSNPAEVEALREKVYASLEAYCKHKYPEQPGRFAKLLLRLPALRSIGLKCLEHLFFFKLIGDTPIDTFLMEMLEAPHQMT
Experiment: Co-transfection assay (LXRE luciferase reporter), LXRβ
Type: cell-based
Parameters: % Efficacy: concentration or dose not given beside the values
Conditions: for pEC50: CV-1 cells transfected with pCMX-hLXRβ and LXREx1-Tk-Luciferase, 20 hours incubation; for Emax: read-out: % Efficacy
Summary of the method: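 CV-1 / pCMX-hLXRβ + LXREx1-Tk-Luc + β-gal; cpd 20 h, 37 °C, ≤0.5% DMSO; Steady-Glo luminescence. 11-pt ½-log curves, duplicate wells, sigmoidal fit → EC50; % efficacy vs high-control agonist, DMSO low control; mean of ≥2 expts.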

[1] = LXRβ co-transfection, relative to high control 1-(2,4-difluorobenzyl)-2-oxo-6-(4-phenoxyphenyl)-4-(trifluoromethyl)-1,2-dihydropyridine-3-carbonitrile

| Compound | pEC50 | Emax [1] [%] | % Efficacy [1] [%] |
| --- | --- | --- | --- |
| Cc1nc(C(N)=O)cn1-c1ccc(-c2cc(F)c(CO)c(S(C)(=O)=O)c2)cc1-c1nc(C2CC2)oc1-c1ccc2c(c1)OC(F)(F)O2 [Example 490, 1-(3-(2-cyclopropyl-5-(2,2-difluorobenzo[d][1,3]dioxol-5-yl)oxazol-4-yl)-3′-fluoro-4′-(hydroxymethyl)-5′-(methylsulfonyl)biphenyl-4-yl)-2-methyl-1H-imidazole-4-carboxamide] | 7.12 | 54 |  |
| Cc1nc(-c2cc(-c3cc(F)c(CO)c(S(C)(=O)=O)c3)ccc2-n2cc(C(F)(F)F)nc2C)c(-c2ccc(F)c(OC(F)F)c2)o1 [Example 461, (3′-(5-(3-(difluoromethoxy)-4-fluorophenyl)-2-methyloxazol-4-yl)-3-fluoro-4′-(2-methyl-4-(trifluoromethyl)-1H-imidazol-1-yl)-5-(methylsulfonyl)biphenyl-4-yl)methanol] | 6.90 | 61 |  |
| Cc1nc(C(F)(F)F)cn1-c1ccc(-c2cccc(S(C)(=O)=O)c2)cc1-n1nncc1-c1ccc(F)c(Cl)c1 [Example 33, 5-(3-chloro-4-fluorophenyl)-1-{3′-(methylsulfonyl)-4-[2-methyl-4-(trifluoromethyl)-1H-imidazol-1-yl]biphenyl-3-yl}-1H-1,2,3-triazole] | 6.19 | 103 |  |
| CCOc1ncc(-c2oc(C)nc2-c2cc(-c3cccc(S(C)(=O)=O)c3)ccc2-n2cc(C(F)(F)F)nc2C)cc1F [Example 471, 5-(6-ethoxy-5-fluoropyridin-3-yl)-2-methyl-4-(4-(2-methyl-4-(trifluoromethyl)-1H-imidazol-1-yl)-3′-(methylsulfonyl)biphenyl-3-yl)oxazole] | 6.70 | 45 |  |
| Cc1nc(-c2cc(-c3cc(F)c(CO)c(S(C)(=O)=O)c3)ccc2-n2cc(Cl)nc2C)c(-c2ccc3c(c2)OC(F)(F)O3)o1 [Example 424, (4′-(4-chloro-2-methyl-1H-imidazol-1-yl)-3′-(5-(2,2-difluorobenzo[d][1,3]dioxol-5-yl)-2-methyloxazol-4-yl)-3-fluoro-5-(methylsulfonyl)biphenyl-4-yl)methanol] | 7.34 | 59 |  |
| Cc1nc(C(F)(F)F)cn1-c1ccc(-c2cccc(S(C)(=O)=O)c2)cc1-n1nncc1-c1ccc(SC(F)(F)F)cc1 [Example 32, 1-{3′-(methylsulfonyl)-4-[2-methyl-4-(trifluoromethyl)-1H-imidazol-1-yl]biphenyl-3-yl}-5-{4-[(trifluoromethyl)thio]phenyl}-1H-1,2,3-triazole] | 6.20 | 84 |  |
| Cc1nc(C(F)(F)C(C)C)cn1-c1ccc(-c2cc(F)c(CO)c(S(C)(=O)=O)c2)cc1-n1nncc1-c1ccc(OC(F)(F)F)cc1 [Example 221, (4′-(4-(1,1-difluoro-2-methylpropyl)-2-methyl-1H-imidazol-1-yl)-3-fluoro-5-(methylsulfonyl)-3′-(5-(4-(trifluoromethoxy)phenyl)-1H-1,2,3-triazol-1-yl)-[1,1′-biphenyl]-4-yl)methanol] | 6.95 | 69 |  |
| Cc1nc(-c2cc(-c3cccc(S(C)(=O)=O)c3)ccc2-n2cc(C(F)(F)F)nc2C)c(-c2cc(Cl)ccn2)o1 [Example 434, 5-(4-chloropyridin-2-yl)-2-methyl-4-(4-(2-methyl-4-(trifluoromethyl)-1H-imidazol-1-yl)-3′-(methylsulfonyl)biphenyl-3-yl)oxazole] | 6.34 | 65 |  |
| CCC(F)(F)c1cn(-c2ccc(-c3cc(F)c(CO)c(S(C)(=O)=O)c3)cc2-c2ocnc2-c2ccc(OC(F)(F)F)cc2)c(C)n1 [Example 363, {4′-[4-(1,1-difluoropropyl)-2-methyl-1H-imidazol-1-yl]-3-fluoro-5-(methylsulfonyl)-3′-(4-{4-[(trifluoromethyl)oxy]phenyl}-1,3-oxazol-5-yl)biphenyl-4-yl}methanol] | 6.54 | 58 |  |
| Cc1nc(C(F)(F)F)cn1-c1c(F)cc(-c2cccc(S(=O)(=O)NCCO)c2)cc1-n1nncc1-c1ccc(OC(F)(F)F)cc1 [Example 208, 3′-fluoro-N-(2-hydroxyethyl)-4′-[2-methyl-4-(trifluoromethyl)-1H-imidazol-1-yl]-5′-(5-{4-[(trifluoromethyl)oxy]phenyl}-1H-1,2,3-triazol-1-yl)biphenyl-3-sulfonamide] | 5.90 | 77 |  |

The remaining compounds from weak to strong by pEC50, led by results:

| pEC50 | Emax [1] [%] | % Efficacy [1] [%] | Compound |
| --- | --- | --- | --- |
| 5.33 | 42 |  | COc1ncc(-c2oc(C)nc2-c2cc(-c3cccc(S(C)(=O)=O)c3)ccc2-n2cc(Cl)nc2C)cc1F [Example 464, 4-(4-(4-chloro-2-methyl-1H-imidazol-1-yl)-3′-(methylsulfonyl)biphenyl-3-yl)-5-(5-fluoro-6-methoxypyridin-3-yl)-2-methyloxazole] |
| 5.94 | 69 |  | Cc1cn(-c2ccc(-c3cccc(S(C)(=O)=O)c3)cc2-n2nncc2-c2ccc(OC(F)(F)F)cc2)c(C)n1 [Example 83, 1-[4-(2,4-dimethyl-1H-imidazol-1-yl)-3′-(methylsulfonyl)biphenyl-3-yl]-5-{4-[(trifluoromethyl)oxy]phenyl}-1H-1,2,3-triazole] |
| 5.99 | 159 |  | Cc1nc(C(F)F)c(Cl)n1-c1ccc(-c2cccc(S(C)(=O)=O)c2)cc1-n1nncc1-c1ccc(OC(F)(F)F)cc1 [Example 172, 1-{4-[5-chloro-4-(difluoromethyl)-2-methyl-1H-imidazol-1-yl]-3′-(methylsulfonyl)biphenyl-3-yl}-5-{4-[(trifluoromethyl)oxy]phenyl}-1H-1,2,3-triazole] |
| 6.08 |  | 33 | Cc1nc(-c2cc(-c3cccc(S(C)(=O)=O)c3)ccc2-n2cc(C(C)O)nc2C)c(-c2ccc3c(c2)OC(F)(F)O3)o1 (single isomer, unassigned) [Example 372, 1-(1-(3-(5-(2,2-difluorobenzo[d][1,3]dioxol-5-yl)-2-methyloxazol-4-yl)-3′-(methylsulfonyl)-[1,1′-biphenyl]-4-yl)-2-methyl-1H-imidazol-4-yl) ethanol] |
| 6.11 | 107 |  | Cc1nc(C(F)F)cn1-c1ccc(-c2cccc(S(C)(=O)=O)c2)cc1-n1nncc1-c1ccc2c(c1)OC(F)(F)O2 [Example 167, 5-(2,2-difluoro-1,3-benzodioxol-5-yl)-1-{4-[4-(difluoromethyl)-2-methyl-1H-imidazol-1-yl]-3′-(methylsulfonyl)biphenyl-3-yl}-1H-1,2,3-triazole] |
| 6.21 | 60 |  | Cc1nc(-c2cc(-c3cccc(S(C)(=O)=O)c3)ccc2-n2cc(C(F)(F)F)nc2C)c(-c2cccnc2C)o1 [Example 394, 2-methyl-4-(4-(2-methyl-4-(trifluoromethyl)-1H-imidazol-1-yl)-3′-(methylsulfonyl)biphenyl-3-yl)-5-(2-methylpyridin-3-yl)oxazole] |
| 6.28 | 91 |  | CNS(=O)(=O)c1cccc(-c2ccc(-n3cc(C(F)F)nc3C)c(-n3nncc3-c3ccc(OC(F)(F)F)cc3)c2)c1 [Example 154, 4′-[4-(difluoromethyl)-2-methyl-1H-imidazol-1-yl]-N-methyl-3′-(5-{4-[(trifluoromethyl)oxy]phenyl}-1H-1,2,3-triazol-1-yl)biphenyl-3-sulfonamide] |
| 6.61 | 121 |  | Cc1nc(C(F)(F)F)c(Cl)n1-c1ccc(-c2cc(Cl)c(CO)c(S(C)(=O)=O)c2)cc1-n1nncc1-c1ccc(OC(F)(F)F)cc1 [Example 60, {3-chloro-4′-[5-chloro-2-methyl-4-(trifluoromethyl)-1H-imidazol-1-yl]-5-(methylsulfonyl)-3′-(5-{4-[(trifluoromethyl)oxy]phenyl}-1H-1,2,3-triazol-1-yl)biphenyl-4-yl}methanol] |
| 6.99 | 77 |  | Cc1ccc(C(C)c2cnnn2-c2cc(-c3cc(Cl)c(CO)c(S(C)(=O)=O)c3)ccc2-n2cc(C(F)(F)F)nc2C)cc1 (centres unmarked) [Example 110, (3-chloro-3′-{5-[1-(4-methylphenyl)ethyl]-1H-1,2,3-triazol-1-yl}-5-(methylsulfonyl)-4′-[2-methyl-4-(trifluoromethyl)-1H-imidazol-1-yl]biphenyl-4-yl)methanol] |
